For one assay, the system named is A. flavus. Nature of the assay: microbe, parasite or virus in culture. It is filed as cell-based, Aspergillus flavus.
Assay [1] relates to aflatoxin accumulation by A. flavus. Kind of assay: microbe, parasite or virus in culture. It is filed as cell-based, Aspergillus flavus.
Setting [2] is: Aspergillus flavus, 100 µM, read-out: G.I. (%) (A. flavus growth inhibition).

Bounds are passed on as bounds.

Turning to “Cu(II) syringaldehyde bisthiosemicarbazonate”, the “G.I. (%) (A. flavus growth inhibition)” value in the assay with A. flavus (100 µM) is recorded as 61,0%. Also, the “A.I. (%) (aflatoxin accumulation inhibition)” value in assay [1] (100 µM) is recorded as 61,0%.
With `CC(=O)c1cccs1` [2-acetyl-thiophene], the “activity of parent compounds on aflatoxin biosynthesis” value in assay [1] was “fundamentally inactive”.
“Cu(II) 2,4‐decadienal bisthiosemicarbazonate”: the “G.I. (%) (A. flavus growth inhibition)” value is 91,0% in the assay on A. flavus (50 µM) and 80,0% with A. flavus (100 µM).
For “Ni(II) Cuminaldehyde bisthiosemicarbazonate”, the “G.I. (%) (A. flavus growth inhibition)” value is 84,0% in the assay on A. flavus (50 µM) and 90,0% with A. flavus (100 µM). In addition, the “A.I. (%) (aflatoxin accumulation inhibition)” value in assay [1] (50 µM) is 91,5%; in assay [1] (100 µM), 96,0%.
In the case of “Zn(II) 1‐isopropylbenzaldehyde bisthiosemicarbazonate”, the “A.I. (%) (aflatoxin accumulation inhibition)” value in assay [1] (50 µM) is reported as 55,3%; in assay [1] (100 µM), 100%.
For the compound “Cu(II) Camphorquinone bisthiosemicarbazonate”, the “A.I. (%) (aflatoxin accumulation inhibition)” value in assay [1] (100 µM) is 53,0%.
On to “Ni(II) Cinnamaldehyde bisthiosemicarbazonate”, for which the “G.I. (%) (A. flavus growth inhibition)” value in the assay with A. flavus (50 µM) is 87,9%; in the assay with A. flavus (100 µM), 100%. Moreover, the entries for the “A.I. (%) (aflatoxin accumulation inhibition)” value in assay [1] (50 µM) and in assay [1] (100 µM) were 95,0% and 100%, respectively.
Take “Cu(II) 2‐isopropylbenzaldehyde bisthiosemicarbazonate”: the “A.I. (%) (aflatoxin accumulation inhibition)” value is reported as 65,9% in assay [1] (50 µM) and 80,8% in assay [1] (100 µM).
As to Cu(II) jasmone bisthiosemicarbazonate, in the assay on A. flavus (100 µM), the “G.I. (%) (A. flavus growth inhibition)” value is 74,3%. The “A.I. (%) (aflatoxin accumulation inhibition)” value is 78,0% in assay [1] (50 µM) and 97,0% in assay [1] (100 µM).
Broadly, the inhibition is the percentage by which the read-out fell short of the control. For the compound `O=c1cc(-c2ccccc2)oc2ccccc12` [Flavone], in the assay on A. flavus (Aspergillus flavus, 50 µM, read-out: G.I. (%) (A. flavus growth inhibition)), the inhibition at 50 µM is 66%. Moreover, the inhibition at 100 µM in the assay with A. flavus (setting [2]) is 83%.
On to `CC(C)=CCC/C(C)=C/C=N/NC(N)=S` [Citral thiosemicarbazone], for which the “G.I. (%) (A. flavus growth inhibition)” value in the assay on A. flavus (100 µM) was 57,0%.
For the compound “Cu(II) 2,3,4‐trimethoxybenzaldehyde bisthiosemicarbazonate”, the “G.I. (%) (A. flavus growth inhibition)” value in the assay with A. flavus (50 µM) is listed as 55,0%.
Consider `CC(C)c1ccccc1C=NNC(N)=S` [2‐isopropylbenzaldehyde thiosemicarbazone], for which the “A.I. (%) (aflatoxin accumulation inhibition)” value in assay [1] (50 µM) was 67,0%; in assay [1] (100 µM) it was 97,0%.
Acetylthiophene bisthiosemicarbazone: the “G.I. (%) (A. flavus growth inhibition)” value in the assay with A. flavus (100 µM) was 65,0%.
In the case of “Ni(II) perillaldehyde bisthiosemicarbazonate”, the “A.I. (%) (aflatoxin accumulation inhibition)” value in assay [1] (50 µM) is 85,2%; in assay [1] (100 µM), 90,1%.
Consider `CCCCCCCCCCC=NNC(N)=S` [Undecanal thiosemicarbazone], for which the entries for the “G.I. (%) (A. flavus growth inhibition)” value in the assay with A. flavus (50 µM) and with A. flavus (100 µM) were 78,0% and 62,0%, respectively. Besides, the entries for the “A.I. (%) (aflatoxin accumulation inhibition)” value in assay [1] (50 µM) and in assay [1] (100 µM) were 72,0% and 93,0%, respectively.
As for “Cu(II) benzaldehyde 4,4'‐dimethyl thiosemicarbazonate”, the “A.I. (%) (aflatoxin accumulation inhibition)” value in assay [1] (100 µM) is reported as 67,0%.
For “Cu(I) chloroaqua flavone thiosemicarbazone”, the figures for the “G.I. (%) (A. flavus growth inhibition)” value in the assay with A. flavus (50 µM) and in the assay with A. flavus (100 µM) were 60,0% and 79,0%, respectively.
“Cu(II) 3,4‐dimethoxybenzaldehyde bis 4,4'‐dimethyl thiosemicarbazonate”: the “A.I. (%) (aflatoxin accumulation inhibition)” value in assay [1] (50 µM) is 61,4%; in assay [1] (100 µM) it was 84,6%.
On the same counts, the results for “Zn(II) 1‐isopropylbenzaldehyde bis thiosemicarbazone diacetate” are 69,3% and 81,9%.
Consider `CC(=NNC(N)=S)c1ccco1` [2-acfurTS, 2-acetylfuranthiosemicarbazone], for which the “impact on fungal growth” value in the assay on A. flavus (10 to 100 µM, complexes compared with their ligand) is recorded as “modest inhibitory activity”. Further, the “maximum aflatoxin accumulation inhibition” value in assay [1] is listed as at most 28.7%.
As to “Zn(II) Cuminaldehyde bisthiosemicarbazonate”, the entries for the “G.I. (%) (A. flavus growth inhibition)” value in the assay with A. flavus (50 µM) and in the assay on A. flavus (100 µM) were 56,0% and 60,3%, respectively. Besides, the “A.I. (%) (aflatoxin accumulation inhibition)” value in assay [1] (50 µM) was 97,1%; in assay [1] (100 µM) it was 100%.
On to Cu(II) fenchone bisthiosemicarbazonate, for which the “G.I. (%) (A. flavus growth inhibition)” value in the assay with A. flavus (100 µM) is given as 57,0%. Further, the entries for the “A.I. (%) (aflatoxin accumulation inhibition)” value in assay [1] (50 µM) and in assay [1] (100 µM) were 62,0% and 84,0%, respectively.
Regarding “Cu(II) 1‐(3‐methoxyphenyl)heptan‐1‐one bisthiosemicarbazonate”, the “A.I. (%) (aflatoxin accumulation inhibition)” value is reported as 82,5% in assay [1] (50 µM) and 95,2% in assay [1] (100 µM).
As to `C=C(C)C1CC=C(C=NNC(N)=S)CC1` (centres unmarked) [Perillaldehyde thiosemicarbazone], in the assay on A. flavus (100 µM), the “G.I. (%) (A. flavus growth inhibition)” value is recorded as 73,5%. Also, the “A.I. (%) (aflatoxin accumulation inhibition)” value in assay [1] (50 µM) is recorded as 78,0%; in assay [1] (100 µM) it was 87,3%.
“Cu(II) 3‐phenylpropanal bisthiosemicarbazonate”: the “G.I. (%) (A. flavus growth inhibition)” value in the assay with A. flavus (50 µM) is given as 69,0%; in the assay with A. flavus (100 µM), 68,0%.
As for Bisvanillin thiosemicarbazone, the “G.I. (%) (A. flavus growth inhibition)” value in the assay on A. flavus (100 µM) is 57,0%. Further, in assay [1] (100 µM), the “A.I. (%) (aflatoxin accumulation inhibition)” value was 61,0%.
Turning to “Cu(II) 3,4,5‐trimethoxybenzaldehyde bisthiosemicarbazonate”, the “G.I. (%) (A. flavus growth inhibition)” value in the assay with A. flavus (100 µM) is on record as 54,0%. In addition, the “A.I. (%) (aflatoxin accumulation inhibition)” value in assay [1] (100 µM) is 76,0%.
Turning to Cu(II) nonanal bisthiosemicarbazonate, the “G.I. (%) (A. flavus growth inhibition)” value with A. flavus (100 µM) is 84,1%. Also, the “A.I. (%) (aflatoxin accumulation inhibition)” value in assay [1] (50 µM) is recorded as 90,0%; in assay [1] (100 µM) it was 100%.
`CCC(/C=C/c1ccc(OC)cc1)=NNC(N)=S` [(E)‐1‐(4‐methoxyphenyl)‐1‐pentene‐3‐one‐3‐thiosemicarbazone]: the entries for the “G.I. (%) (A. flavus growth inhibition)” value in the assay with A. flavus (50 µM) and in the assay with A. flavus (100 µM) were 62,0% and 74,0%, respectively.
Consider `NC(=S)NN=C1CCCCC1` [Cyclohexanone thiosemicarbazone], for which the “G.I. (%) (A. flavus growth inhibition)” value is recorded as 80,0% in the assay on A. flavus (50 µM) and 95,0% in the assay with A. flavus (100 µM).
Consider “Zn(II) 2‐isopropylbenzaldehyde bisthiosemicarbazonate”, for which the results for the “A.I. (%) (aflatoxin accumulation inhibition)” value in assay [1] (50 µM) and in assay [1] (100 µM) were 93,8% and 100%, respectively.
In the case of Dicyclohexanone thiosemicarbazone, the figures for the “G.I. (%) (A. flavus growth inhibition)” value in the assay with A. flavus (50 µM) and in the assay with A. flavus (100 µM) were 90,0% and 99,00%, respectively.
With `O=C1c2ccccc2C(=O)c2cc(CO)ccc21` [2‐hydroxymethyl‐anthraquinone], the “G.I. (%) (A. flavus growth inhibition)” value in the assay on A. flavus (100 µM) is reported as 62,0%.
For `NC(=S)NN=C(c1ccccc1)c1ccccc1` [Benzophenone thiosemicarbazone], the inhibition at 100 µM in the assay on A. flavus (setting [2]) worked out at 53%.
In the case of `Cc1ccc(S(=O)(=O)OCc2ccc3c(c2)C(=O)c2ccccc2C3=O)cc1` [Tosylate ‐2‐methyleneanthraquinone], the figures for the “G.I. (%) (A. flavus growth inhibition)” value in the assay on A. flavus (50 µM) and in the assay on A. flavus (100 µM) were 66,0% and 87,0%, respectively.
Regarding `CCCCCC1=C(C)CCC1=NNC(N)=S` [Dihydrojasmone thiosemicarbazone], the “A.I. (%) (aflatoxin accumulation inhibition)” value in assay [1] (50 µM) is recorded as 51,5%; in assay [1] (100 µM), 63,2%.
On the same counts, the results for `CN(C)C(=S)NN=CC=Cc1ccccc1.CN(C)C(=S)NN=CC=Cc1ccccc1.[Zn+2]` [Zn(II) Cinnamaldehyde bis 4,4‐dimethyl thiosemicarbazonate] are 75,0% and 100%.
Regarding “Cu(II) 1‐isopropylbenzaldehyde bisthiosemicarbazonate”, the “A.I. (%) (aflatoxin accumulation inhibition)” value in assay [1] (100 µM) is 73,5%.
In the case of `CC12CCC(C(=NNC(N)=S)C1=NNC(N)=S)C2(C)C` (centres unmarked) [Camphorquinone bis thiosemicarbazone], the “G.I. (%) (A. flavus growth inhibition)” value in the assay with A. flavus (100 µM) is given as 58,0%.
`CC(=O)c1ccco1` [2-acetyl-furan]: in assay [1], the “activity of parent compounds on aflatoxin biosynthesis” value was “fundamentally inactive”.
Regarding `CCC=CCC1=C(C)CCC1=NNC(N)=S` [Jasmone thiosemicarbazone], the “A.I. (%) (aflatoxin accumulation inhibition)” value in assay [1] (50 µM) was 88,0%; in assay [1] (100 µM), 90,0%.
For the compound “Cu(II) cinnamaldehyde bisthiosemicarbazonate”, in the assay on A. flavus (50 µM), the “G.I. (%) (A. flavus growth inhibition)” value is 58,0%.
As to `NC(=S)NN=Cc1cccc(O)c1O` [2,3‐dihydroxybenzaldehyde thiosemicarbazone], in the assay on A. flavus (50 µM), the “G.I. (%) (A. flavus growth inhibition)” value is given as 53,0%.
Cu(II) heptanal bisthiosemicarbazonate: the “A.I. (%) (aflatoxin accumulation inhibition)” value in assay [1] (50 µM) is 62,8%; in assay [1] (100 µM), 85,5%.
For `CCCCCC=CC=NNC(N)=S` [2‐Octenal thiosemicarbazone], the “G.I. (%) (A. flavus growth inhibition)” value was 93,0% in the assay with A. flavus (50 µM) and 96,0% in the assay on A. flavus (100 µM).
On the same counts, the results for `NC(=S)NN=CCCc1ccccc1` [3‐Phenylpropanal thiosemicarbazone] are 100% and 107,0%.
On the same counts, the results for “Zn(II) (E)‐1‐(4‐methoxyphenyl)‐1‐pentene‐3‐one‐bis 3‐thiosemicarbazonate” are 86,0% and 89,0%.
As for “Cu(II) Dihydrojasmone bisthiosemicarbazonate”, the “A.I. (%) (aflatoxin accumulation inhibition)” value in assay [1] (50 µM) was 66,0%; in assay [1] (100 µM), 80,0%.
As for `NC(=S)NN=c1cc(-c2ccccc2)oc2ccccc12` [Flavone thiosemicarbazone], the “G.I. (%) (A. flavus growth inhibition)” value in the assay with A. flavus (50 µM) and in the assay with A. flavus (100 µM) was 100% in each case.
For the compound “Cu(II) 4,7'‐dihydroxyflavone bisthiosemicarbazonate”, the “G.I. (%) (A. flavus growth inhibition)” value with A. flavus (50 µM) and in the assay with A. flavus (100 µM) was 100% throughout.

Values taken from PMC8123576 (International Journal of Molecular Sciences, 2021).
